Experiments:
Assay in all cases: relative viability vs DMSO control (72 h) (fraction); higher = more viable cells
SW684 = system: SW684
Outline: (§1)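 Sarcoma cell lines were seeded in 384-well plates at densities chosen for 80–90% confluence, then 24 h later given 2.5 µl of serially diluted compound drawn from source plates spanning 10 mM to 0.0002 mM. They were held 72 h at 37 °C, 5% CO2, with 0.1% DMSO vehicle and a 5 µM positive control included. Relative viability was read with ATPLite as percent growth and averaged over up to triplicate wells. Rescaling placed full at 1 and none at 0.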

A204 = system: A204
Outline: as §1

SK-ES-1 = system: SK-ES-1
Outline: as §1

G401 = system: G401
Outline: as §1

SK-LMS-1 = system: SK-LMS-1
Outline: as §1

HS729 = system: HS729
Outline: as §1

SW872 = system: SW872
Outline: as §1

MES-SA = system: MES-SA
Outline: as §1

SYO-1 = system: SYO-1
Outline: as §1

SW1353 = system: SW1353
Outline: as §1

SW982 = system: SW982
Outline: as §1

KHOS-240S = system: KHOS-240S
Outline: as §1

CO[C@H]1C[C@@H]2CC[C@@H](C)[C@@](O)(O2)C(=O)C(=O)N2CCCC[C@H]2C(=O)O[C@H]([C@H](C)C[C@@H]2CC[C@@H](OCCO)[C@H](OC)C2)CC(=O)[C@H](C)/C=C(\C)[C@@H](O)[C@@H](OC)C(=O)[C@H](C)C[C@H](C)/C=C/C=C/C=C/1C [Certican]
Settings	relative viability
A204, 0.00017 µM	0.919
A204, 0.00051 µM	0.793
A204, 0.00152 µM	0.657
A204, 0.00457 µM	0.619
A204, 0.01372 µM	0.591
A204, 0.04115 µM	0.517
A204, 0.1235 µM	0.498
A204, 0.3704 µM	0.485
A204, 1.111 µM	0.487
A204, 3.333 µM	0.45
A204, 10 µM	0.43
G401, 0.00017 µM	0.9112
G401, 0.00051 µM	0.873
G401, 0.00152 µM	0.846
G401, 0.00457 µM	0.825
G401, 0.01372 µM	0.784
G401, 0.04115 µM	0.757
G401, 0.1235 µM	0.729
G401, 0.3704 µM	0.701
G401, 1.111 µM	0.683
G401, 3.333 µM	0.668
G401, 10 µM	0.642
HS729, 0.00017 µM	0.907
HS729, 0.00051 µM	0.943
HS729, 0.00152 µM	0.896
HS729, 0.00457 µM	0.835
HS729, 0.01372 µM	0.903
HS729, 0.04115 µM	0.829
HS729, 0.1235 µM	0.828
HS729, 0.3704 µM	0.808
HS729, 1.111 µM	0.821
HS729, 3.333 µM	0.828
HS729, 10 µM	0.891
KHOS-240S, 0.00017 µM	1.05
KHOS-240S, 0.00051 µM	1.01
KHOS-240S, 0.00152 µM	0.935
KHOS-240S, 0.00457 µM	0.889
KHOS-240S, 0.01372 µM	0.851
KHOS-240S, 0.04115 µM	0.845
KHOS-240S, 0.1235 µM	0.815
KHOS-240S, 0.3704 µM	0.786
KHOS-240S, 1.111 µM	0.784
KHOS-240S, 3.333 µM	0.75
KHOS-240S, 10 µM	0.717
MES-SA, 0.00017 µM	0.862
MES-SA, 0.00051 µM	0.803
MES-SA, 0.00152 µM	0.608
MES-SA, 0.00457 µM	0.489
MES-SA, 0.01372 µM	0.422
MES-SA, 0.04115 µM	0.398
MES-SA, 0.1235 µM	0.378
MES-SA, 0.3704 µM	0.373
MES-SA, 1.111 µM	0.377
MES-SA, 3.333 µM	0.358
MES-SA, 10 µM	0.332
SK-ES-1, 0.00017 µM	1
SK-ES-1, 0.00051 µM	1.01
SK-ES-1, 0.00152 µM	0.983
SK-ES-1, 0.00457 µM	0.774
SK-ES-1, 0.01372 µM	0.694
SK-ES-1, 0.04115 µM	0.648
SK-ES-1, 0.1235 µM	0.592
SK-ES-1, 0.3704 µM	0.55
SK-ES-1, 1.111 µM	0.552
SK-ES-1, 3.333 µM	0.533
SK-ES-1, 10 µM	0.499
SK-LMS-1, 0.00017 µM	1
SK-LMS-1, 0.00051 µM	0.894
SK-LMS-1, 0.00152 µM	0.759
SK-LMS-1, 0.00457 µM	0.661
SK-LMS-1, 0.01372 µM	0.631
SK-LMS-1, 0.04115 µM	0.571
SK-LMS-1, 0.1235 µM	0.549
SK-LMS-1, 0.3704 µM	0.572
SK-LMS-1, 1.111 µM	0.564
SK-LMS-1, 3.333 µM	0.5489
SK-LMS-1, 10 µM	0.512
SW684, 0.00017 µM	1.08
SW684, 0.00051 µM	1.125
SW684, 0.00152 µM	1.069
SW684, 0.00457 µM	1.03
SW684, 0.01372 µM	0.914
SW684, 0.04115 µM	0.829
SW684, 0.1235 µM	0.844
SW684, 0.3704 µM	0.813
SW684, 1.111 µM	0.83
SW684, 3.333 µM	0.872
SW684, 10 µM	0.807
SW872, 0.00017 µM	0.922
SW872, 0.00051 µM	0.774
SW872, 0.00152 µM	0.6659
SW872, 0.00457 µM	0.645
SW872, 0.01372 µM	0.611
SW872, 0.04115 µM	0.592
SW872, 0.1235 µM	0.574
SW872, 0.3704 µM	0.561
SW872, 1.111 µM	0.567
SW872, 3.333 µM	0.584
SW872, 10 µM	0.584
SW982, 0.00017 µM	1
SW982, 0.00051 µM	0.882
SW982, 0.00152 µM	0.79
SW982, 0.00457 µM	0.756
SW982, 0.01372 µM	0.728
SW982, 0.04115 µM	0.68
SW982, 0.1235 µM	0.679
SW982, 0.3704 µM	0.645
SW982, 1.111 µM	0.618
SW982, 3.333 µM	0.599
SW982, 10 µM	0.604
SW1353, 0.00017 µM	0.915
SW1353, 0.00051 µM	0.875
SW1353, 0.00152 µM	0.855
SW1353, 0.00457 µM	0.772
SW1353, 0.01372 µM	0.76
SW1353, 0.04115 µM	0.746
SW1353, 0.1235 µM	0.708
SW1353, 0.3704 µM	0.71
SW1353, 1.111 µM	0.696
SW1353, 3.333 µM	0.677
SW1353, 10 µM	0.6966
SYO-1, 0.00017 µM	0.904
SYO-1, 0.00051 µM	0.876
SYO-1, 0.00152 µM	0.852
SYO-1, 0.00457 µM	0.84
SYO-1, 0.01372 µM	0.808
SYO-1, 0.04115 µM	0.788
SYO-1, 0.1235 µM	0.755
SYO-1, 0.3704 µM	0.755
SYO-1, 1.111 µM	0.729
SYO-1, 3.333 µM	0.738
SYO-1, 10 µM	0.742

CC1(COc2ccc3c(c2)ncn3-c2ccc3cccc(N4CCC(N)CC4)c3n2)COC1 [Crenolanib]
Settings	relative viability
A204, 0.00017 µM	1.085
A204, 0.00051 µM	1.07
A204, 0.00152 µM	1.08
A204, 0.00457 µM	1.05
A204, 0.01372 µM	1.01
A204, 0.04115 µM	0.819
A204, 0.1235 µM	0.594
A204, 0.3704 µM	0.457
A204, 1.111 µM	0.403
A204, 3.333 µM	0.326
A204, 10 µM	0.016
G401, 0.00017 µM	0.968
G401, 0.00051 µM	0.935
G401, 0.00152 µM	0.951
G401, 0.00457 µM	0.942
G401, 0.01372 µM	0.955
G401, 0.04115 µM	0.981
G401, 0.1235 µM	0.972
G401, 0.3704 µM	0.99
G401, 1.111 µM	0.95
G401, 3.333 µM	0.934
G401, 10 µM	0.0201
HS729, 0.00017 µM	0.96
HS729, 0.00051 µM	0.973
HS729, 0.00152 µM	1.03
HS729, 0.00457 µM	0.992
HS729, 0.01372 µM	1.01
HS729, 0.04115 µM	0.98
HS729, 0.1235 µM	0.97
HS729, 0.3704 µM	1.01
HS729, 1.111 µM	1.034
HS729, 3.333 µM	0.983
HS729, 10 µM	0.901
KHOS-240S, 0.00017 µM	0.97
KHOS-240S, 0.00051 µM	0.957
KHOS-240S, 0.00152 µM	1.01
KHOS-240S, 0.00457 µM	1.02
KHOS-240S, 0.01372 µM	1.01
KHOS-240S, 0.04115 µM	1.023
KHOS-240S, 0.1235 µM	0.986
KHOS-240S, 0.3704 µM	0.963
KHOS-240S, 1.111 µM	0.844
KHOS-240S, 3.333 µM	0.476
KHOS-240S, 10 µM	0.134
MES-SA, 0.00017 µM	0.919
MES-SA, 0.00051 µM	0.919
MES-SA, 0.00152 µM	0.9274
MES-SA, 0.00457 µM	0.971
MES-SA, 0.01372 µM	0.9531
MES-SA, 0.04115 µM	0.94
MES-SA, 0.1235 µM	0.98
MES-SA, 0.3704 µM	1.05
MES-SA, 1.111 µM	1.03
MES-SA, 3.333 µM	0.475
MES-SA, 10 µM	0.0499
SK-ES-1, 0.00017 µM	0.997
SK-ES-1, 0.00051 µM	0.993
SK-ES-1, 0.00152 µM	1.01
SK-ES-1, 0.00457 µM	1.05
SK-ES-1, 0.01372 µM	1.02
SK-ES-1, 0.04115 µM	1.02
SK-ES-1, 0.1235 µM	1.014
SK-ES-1, 0.3704 µM	0.949
SK-ES-1, 1.111 µM	0.675
SK-ES-1, 3.333 µM	0.188
SK-ES-1, 10 µM	0.0214
SK-LMS-1, 0.00017 µM	0.98
SK-LMS-1, 0.00051 µM	1.05
SK-LMS-1, 0.00152 µM	1.036
SK-LMS-1, 0.00457 µM	1.04
SK-LMS-1, 0.01372 µM	1.03
SK-LMS-1, 0.04115 µM	1.03
SK-LMS-1, 0.1235 µM	1.07
SK-LMS-1, 0.3704 µM	1.02
SK-LMS-1, 1.111 µM	0.967
SK-LMS-1, 3.333 µM	0.8
SK-LMS-1, 10 µM	0.0424
SW684, 0.00017 µM	1.02
SW684, 0.00051 µM	1.05
SW684, 0.00152 µM	1.08
SW684, 0.00457 µM	1.04
SW684, 0.01372 µM	1.04
SW684, 0.04115 µM	1.05
SW684, 0.1235 µM	1.08
SW684, 0.3704 µM	1.1
SW684, 1.111 µM	1.15
SW684, 3.333 µM	0.978
SW684, 10 µM	0.423
SW872, 0.00017 µM	1.03
SW872, 0.00051 µM	1.01
SW872, 0.00152 µM	1.03
SW872, 0.00457 µM	1.06
SW872, 0.01372 µM	1.05
SW872, 0.04115 µM	1.02
SW872, 0.1235 µM	1.01
SW872, 0.3704 µM	0.988
SW872, 1.111 µM	0.95
SW872, 3.333 µM	0.786
SW872, 10 µM	0.0216
SW982, 0.00017 µM	0.937
SW982, 0.00051 µM	0.9575
SW982, 0.00152 µM	0.947
SW982, 0.00457 µM	0.974
SW982, 0.01372 µM	0.965
SW982, 0.04115 µM	0.971
SW982, 0.1235 µM	0.969
SW982, 0.3704 µM	0.952
SW982, 1.111 µM	0.679
SW982, 3.333 µM	0.352
SW982, 10 µM	0.0115
SW1353, 0.00017 µM	0.968
SW1353, 0.00051 µM	0.959
SW1353, 0.00152 µM	0.938
SW1353, 0.00457 µM	0.97
SW1353, 0.01372 µM	0.949
SW1353, 0.04115 µM	0.917
SW1353, 0.1235 µM	0.92
SW1353, 0.3704 µM	0.84
SW1353, 1.111 µM	0.813
SW1353, 3.333 µM	0.683
SW1353, 10 µM	0.009
SYO-1, 0.00017 µM	0.974
SYO-1, 0.00051 µM	0.983
SYO-1, 0.00152 µM	0.996
SYO-1, 0.00457 µM	0.998
SYO-1, 0.01372 µM	0.953
SYO-1, 0.04115 µM	0.867
SYO-1, 0.1235 µM	0.785
SYO-1, 0.3704 µM	0.787
SYO-1, 1.111 µM	0.659
SYO-1, 3.333 µM	0.307
SYO-1, 10 µM	-0.023

Reference: the supplement of paper PMC10883282
